Source: the NIST ThermoML archive (doi:10.1021/je700338t)

Tests used:
[1] = 298.15 K, 101.33 kPa, Liquid
[2] = refractive index (Na D-line) (dimensionless); conditions: 298.15 K, 101.33 kPa, Liquid
[3] = xn = mol fraction of the nth substance listed; conditions: 298.15 K, 101 kPa, Liquid; for mass density: Vibrating tube method
[4] = refractive index (Na D-line) (dimensionless); xn = mol fraction of the nth substance listed; conditions: 298.15 K, 101 kPa, Liquid

CCCCn1cc[n+](C)c1.F[P-](F)(F)(F)(F)F [1-butyl-3-methylimidazolium hexafluorophosphate]
Conditions	mass density [kg/m3]	refractive index	speed of sound [m/s]	viscosity [mPa·s]
[1]	1366.07	–	1443.5	212.1
[2]	–	1.4095	–	–

CCCCn1cc[n+](C)c1.F[P-](F)(F)(F)(F)F [1-butyl-3-methylimidazolium hexafluorophosphate] + C1CCOC1
Conditions	mass density, [3] [kg/m3]	refractive index, [4]	speed of sound, [3] [m/s]	viscosity, [3] [mPa·s]
x1 = 0.0199	911.565	–	1279.2	–
x1 = 0.0376	936.57	–	1279.9	–
x1 = 0.0502	–	1.4084	–	0.75
x1 = 0.0737	979.097	–	1287.9	–
x1 = 0.0967	–	1.4117	–	1.14
x1 = 0.15	1055.63	–	1312.6	–
x1 = 0.1524	–	1.4125	–	1.732
x1 = 0.1999	–	1.4126	–	2.476
x1 = 0.2003	1095.84	–	1329.2	–
x1 = 0.2486	1129.41	–	1343.7	–
x1 = 0.2969	–	1.413	–	4.937
x1 = 0.3004	1159.97	–	1357.3	–
x1 = 0.3484	–	1.4128	–	6.979
x1 = 0.3491	1185.7	–	1368.6	–
x1 = 0.3994	–	1.4127	–	10.06
x1 = 0.4484	–	1.4126	–	14.54
x1 = 0.4634	1235.91	–	1390.5	–
x1 = 0.5028	–	1.4117	–	18.5
x1 = 0.5808	1276.69	–	1406.9	–
x1 = 0.6047	–	1.4115	–	33.63
x1 = 0.6941	1306.09	–	1418.7	–
x1 = 0.7016	–	1.411	–	52.84
x1 = 0.7996	1329.25	–	1427.8	–
x1 = 0.805	–	1.4105	–	90.82
x1 = 0.8991	1348.14	–	1435.7	–
x1 = 0.9595	–	1.4095	–	186.86

CCCCn1cc[n+](C)c1.F[P-](F)(F)(F)(F)F [1-butyl-3-methylimidazolium hexafluorophosphate] + CC#N
Conditions	refractive index, [4]	viscosity, [3] [mPa·s]
x1 = 0.0496	1.3575	0.556
x1 = 0.1016	1.3687	0.864
x1 = 0.147	1.3754	1.187
x1 = 0.2022	1.3819	1.866
x1 = 0.2995	1.3902	3.792
x1 = 0.3524	1.3934	5.308
x1 = 0.4036	1.3959	7.674
x1 = 0.4337	1.3974	9.153
x1 = 0.4955	1.3998	14.44
x1 = 0.5892	1.4024	23.84
x1 = 0.6857	1.4048	40.69
x1 = 0.8046	1.4068	81.53
x1 = 0.8055	1.4069	86.27
x1 = 0.9176	1.4084	154.06

CCCCn1cc[n+](C)c1.F[P-](F)(F)(F)(F)F [1-butyl-3-methylimidazolium hexafluorophosphate] + CO
Conditions	refractive index, [4]	viscosity, [3] [mPa·s]
x1 = 0.0503	1.348	0.913
x1 = 0.0993	1.3636	1.483
x1 = 0.1517	1.371	2.331
x1 = 0.1969	1.3768	3.059
x1 = 0.3024	1.3872	6.057
x1 = 0.3531	1.3892	8.072
x1 = 0.4106	1.3941	11.03
x1 = 0.451	1.3961	13.52
x1 = 0.502	1.3986	17.29
x1 = 0.6015	1.4015	27.41
x1 = 0.7082	1.4045	45.95
x1 = 0.7989	1.4066	66.79
x1 = 0.8889	1.4078	107.94

CCCCn1cc[n+](C)c1.F[P-](F)(F)(F)(F)F [1-butyl-3-methylimidazolium hexafluorophosphate] + C[S+](C)[O-]
Conditions	mass density, [3] [kg/m3]	refractive index, [4]	speed of sound, [3] [m/s]	viscosity, [3] [mPa·s]
x1 = 0.0011	1096.21	–	1484.8	–
x1 = 0.0024	1097.26	–	1484.9	–
x1 = 0.0187	1109.73	–	1483.5	–
x1 = 0.0321	1119.44	–	1482.4	–
x1 = 0.05	–	1.4676	–	2.749
x1 = 0.0552	1135.09	–	1480.5	–
x1 = 0.0635	1140.41	–	1479.9	–
x1 = 0.0996	1161.89	–	1477.3	–
x1 = 0.0997	–	1.4606	–	3.698
x1 = 0.1477	–	1.4546	–	4.962
x1 = 0.153	1189.47	–	1473.7	–
x1 = 0.1977	–	1.4491	–	6.489
x1 = 0.2381	1225.52	–	1469.4	–
x1 = 0.2995	–	1.4396	–	11.95
x1 = 0.3372	1258.28	–	1464.5	–
x1 = 0.3524	–	1.4361	–	16
x1 = 0.3997	–	1.4331	–	21.17
x1 = 0.4328	–	1.4309	–	24.61
x1 = 0.5018	–	1.4278	–	36.98
x1 = 0.5586	1309.44	–	1454.9	–
x1 = 0.598	–	1.4226	–	56.31
x1 = 0.7043	–	1.4182	–	83.73
x1 = 0.7791	1342.89	–	1448.2	–
x1 = 0.7812	–	1.4158	–	117.54
x1 = 0.893	–	1.4125	–	173.32
x1 = 0.925	1359.3	–	1444.7	–

CC#N [acetonitrile]
[1]
Conditions	mass density [kg/m3]	viscosity [mPa·s]
–	776.565	0.339

Conditions	refractive index	speed of sound [m/s]
[1], Sing-around technique in a fixed-path interferometer	–	1278.7
[2], Standard Abbe refractometry	1.3419	–

C[S+](C)[O-] [dimethyl sulfoxide]
[1]
Conditions	mass density [kg/m3]	viscosity [mPa·s]
–	1095.3	1.961

Conditions	refractive index	speed of sound [m/s]
[1], Sing-around technique in a fixed-path interferometer	–	1485
[2], Standard Abbe refractometry	1.4769	–

CO [methanol]
[1]
Conditions	mass density [kg/m3]	viscosity [mPa·s]
–	786.654	0.54

Conditions	refractive index	speed of sound [m/s]
[1], Sing-around technique in a fixed-path interferometer	–	1102.9
[2], Standard Abbe refractometry	1.3269	–

C1CCOC1 [tetrahydrofuran]
[1]
Conditions	mass density [kg/m3]	viscosity [mPa·s]
–	882.008	0.449

Conditions	refractive index	speed of sound [m/s]
[1], Sing-around technique in a fixed-path interferometer	–	1278.2
[2], Standard Abbe refractometry	1.405	–
